According to ChEMBL document CHEMBL1629412, “Cyclic peptide inhibitors of HIV-1 integrase derived from the LEDGF/p75 protein” (Bioorg Med Chem, 2010):
Calls of active or inactive are those of the source. No cut-off for these calls is given here. Numbered stars: 1 amine (or outer) side, 2 acyl side, 3 side chain; on linkers, the order of the positions; unused ones are H or OH. Bridge positions count the residues as written; N and C are the ends. Square brackets hold non-standard residues; d marks the D form. Peptide text beside a SMILES is read from it. X2 = O=C(c1ccccc1-c1c2ccc(=O)cc-2oc2cc(O)ccc12)N(CCC(=O)[*:1])C(=O)[*:2]; X1 = O=C(c1ccccc1-c1c2ccc(=O)cc-2oc2cc(O)ccc12)N(CC(=O)[*:1])C(=O)[*:2]; N(6-aminohexyl)Gly = O=C(CN(CCCCCCN[*:3])[*:1])[*:2]; NGly(3-aminopropyl) = O=C(CN(CCCN[*:3])[*:1])[*:2]; N(2-Aminoethyl)Gly = O=C(CN(CCN[*:3])[*:1])[*:2]; Nlys = NCCCCNCC(=O)O

What was measured:
[1] = molecular target: Human immunodeficiency virus type 1 integrase (Human immunodeficiency virus 1) (UniProt Q7ZJM1); assay: Binding affinity to HIV-1 Integrase by FRET assay
[2] = molecular target: Human immunodeficiency virus type 1 integrase (Human immunodeficiency virus 1) (UniProt Q7ZJM1); assay: Inhibition of HIV-1 Integrase at 1:50 protein/compound molar ratio; conditions: concentration not given here
[3] = system: Human immunodeficiency virus 1; assay: Antiviral activity against HIV1 infected in human MAGI cells assessed as Tat-mediated reporter gene expression; type: functional, organism-based
[4] = system: Human immunodeficiency virus 1; assay: Antiviral activity against HIV1 infected in human H9 cells assessed as extracellular release of viral protein p24 at 12.5 uM added to the medium every 2 days; type: functional
[5] = system: Human immunodeficiency virus 1; assay: Antiviral activity against HIV1 infected in human H9 cells assessed as extracellular release of viral protein p24 at 12.5 uM added to the medium every 2 days measured after 8 days; type: functional; conditions: Human immunodeficiency virus 1, H9
[6] = Chemical stability of the compound in presence of trypsin and chymotrypsin mixture at 1 mM after 30 mins by MALDI-TOF MS; type: physicochemical; conditions: isolated protein, 0.5 h, 1000 µM
[7] = Chemical stability of the compound in presence of trypsin and chymotrypsin mixture at 1 mM after 150 mins by MALDI-TOF MS; type: physicochemical; conditions: isolated protein, 2.5 h, 1000 µM
[8] = molecular target: Human immunodeficiency virus type 1 integrase (Human immunodeficiency virus 1) (UniProt Q7ZJM1); assay: Inhibition of HIV-1 Integrase; conditions: concentration not given here
[9] = system: Human immunodeficiency virus 1; assay: Antiviral activity against HIV1 infected in human H9 cells assessed as extracellular release of viral protein p24 at 12.5 uM after 8 days; type: functional, organism-based

Sequence of Human immunodeficiency virus type 1 integrase (Human immunodeficiency virus 1) (Q7ZJM1 as listed by the source): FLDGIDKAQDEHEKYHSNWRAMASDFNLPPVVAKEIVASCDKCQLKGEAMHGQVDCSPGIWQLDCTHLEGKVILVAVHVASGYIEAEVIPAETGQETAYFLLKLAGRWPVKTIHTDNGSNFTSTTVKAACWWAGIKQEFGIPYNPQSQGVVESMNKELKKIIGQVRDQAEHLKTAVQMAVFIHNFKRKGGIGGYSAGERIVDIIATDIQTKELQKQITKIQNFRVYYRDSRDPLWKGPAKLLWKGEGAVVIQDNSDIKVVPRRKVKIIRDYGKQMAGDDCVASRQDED

Row | Compound | Activity [1] | inhibition [2] | Activity [3] | other results
1 | CC[C@H](C)[C@@H]1NC(=O)[C@H](CCCCN)NC(=O)[C@H](CC(C)C)NC(=O)[C@H](CO)NC(=O)[C@H](CC(N)=O)NC(=O)[C@H](Cc2c[nH]c3ccccc23)NC(=O)CN(C(=O)c2ccccc2-c2c3ccc(=O)cc-3oc3cc(O)ccc23)C(=O)NCCN(CC(N)=O)C(=O)[C@H](C(C)C)NC(=O)[C@H](CC(=O)O)NC(=O)[C@H](CC(C)C)NC(=O)[C@H](CC(N)=O)NC(=O)[C@H](CC(=O)O)NC1=O (WNSLKIDNLDV[N(2-Aminoethyl)Gly]-NH2; linker N-12 via X1) | 5.2 µM | 51% |  | 
2 | CC[C@H](C)[C@@H]1NC(=O)[C@H](CCCCN)NC(=O)[C@H](CC(C)C)NC(=O)[C@H](CO)NC(=O)[C@H](CC(N)=O)NC(=O)[C@H](Cc2c[nH]c3ccccc23)NC(=O)CCN(C(=O)c2ccccc2-c2c3ccc(=O)cc-3oc3cc(O)ccc23)C(=O)NCCN(CC(N)=O)C(=O)[C@H](C(C)C)NC(=O)[C@H](CC(=O)O)NC(=O)[C@H](CC(C)C)NC(=O)[C@H](CC(N)=O)NC(=O)[C@H](CC(=O)O)NC1=O (WNSLKIDNLDV[N(2-Aminoethyl)Gly]-NH2; linker N-12 via X2) | 6.3 µM | 54% |  | 
3 | CC[C@H](C)[C@@H]1NC(=O)[C@H](CCCCN)NC(=O)[C@H](CC(C)C)NC(=O)[C@H](CO)NC(=O)[C@H](CC(N)=O)NC(=O)[C@H](Cc2c[nH]c3ccccc23)NC(=O)CN(C(=O)c2ccccc2-c2c3ccc(=O)cc-3oc3cc(O)ccc23)C(=O)NCCCCCCN(CC(N)=O)C(=O)[C@H](C(C)C)NC(=O)[C@H](CC(=O)O)NC(=O)[C@H](CC(C)C)NC(=O)[C@H](CC(N)=O)NC(=O)[C@H](CC(=O)O)NC1=O (WNSLKIDNLDV[N(6-aminohexyl)Gly]-NH2; linker N-12 via X1) | 3.3 µM | 48% | inactive | 
4 | CC[C@H](C)[C@@H]1NC(=O)[C@H](CCCCN)NC(=O)[C@H](CC(C)C)NC(=O)[C@H](CO)NC(=O)[C@H](CC(N)=O)NC(=O)[C@H](Cc2c[nH]c3ccccc23)NC(=O)CCN(C(=O)c2ccccc2-c2c3ccc(=O)cc-3oc3cc(O)ccc23)C(=O)NCCCCCCN(CC(N)=O)C(=O)[C@H](C(C)C)NC(=O)[C@H](CC(=O)O)NC(=O)[C@H](CC(C)C)NC(=O)[C@H](CC(N)=O)NC(=O)[C@H](CC(=O)O)NC1=O (WNSLKIDNLDV[N(6-aminohexyl)Gly]-NH2; linker N-12 via X2) | 3.8 µM | 48% |  | 
5 | CC[C@H](C)[C@@H]1NC(=O)[C@H](CCCCN)NC(=O)[C@H](CC(C)C)NC(=O)[C@H](CO)NC(=O)[C@H](CC(N)=O)NC(=O)[C@H](Cc2c[nH]c3ccccc23)NC(=O)CN(C(=O)c2ccccc2-c2c3ccc(=O)cc-3oc3cc(O)ccc23)C(=O)NCCCN(CC(N)=O)C(=O)[C@H](C(C)C)NC(=O)[C@H](CC(=O)O)NC(=O)[C@H](CC(C)C)NC(=O)[C@H](CC(N)=O)NC(=O)[C@H](CC(=O)O)NC1=O (WNSLKIDNLDV[NGly(3-aminopropyl)]-NH2; linker N-12 via X1) | 6.5 µM | 44% |  | 
6 | CC[C@H](C)[C@@H]1NC(=O)[C@H](CCCCN)NC(=O)[C@H](CC(C)C)NC(=O)[C@H](CO)NC(=O)[C@H](CC(N)=O)NC(=O)[C@H](Cc2c[nH]c3ccccc23)NC(=O)CCN(C(=O)c2ccccc2-c2c3ccc(=O)cc-3oc3cc(O)ccc23)C(=O)NCCCN(CC(N)=O)C(=O)[C@H](C(C)C)NC(=O)[C@H](CC(=O)O)NC(=O)[C@H](CC(C)C)NC(=O)[C@H](CC(N)=O)NC(=O)[C@H](CC(=O)O)NC1=O (WNSLKIDNLDV[NGly(3-aminopropyl)]-NH2; linker N-12 via X2) | 4 µM | 19% |  | 
7 | CC[C@H](C)[C@@H]1NC(=O)[C@H](CCCCN)NC(=O)[C@H](CC(C)C)NC(=O)[C@H](CO)NC(=O)[C@H](CC(N)=O)NC(=O)[C@H](Cc2c[nH]c3ccccc23)NC(=O)CN(C(=O)c2ccccc2-c2c3ccc(=O)cc-3oc3cc(O)ccc23)C(=O)NCCCCN(CC(N)=O)C(=O)[C@H](C(C)C)NC(=O)[C@H](CC(=O)O)NC(=O)[C@H](CC(C)C)NC(=O)[C@H](CC(N)=O)NC(=O)[C@H](CC(=O)O)NC1=O (WNSLKIDNLDV[Nlys]-NH2; linker N-12 via X1) | 5 µM | 90% | Dose-dependent effect | inhibition at 12.5 µM ([4]; Human immunodeficiency virus 1, H9, 48 h): 80%; inhibition at 12.5 µM [5]: > 90%; Stability [6]: Stable; Stability [7]: Unstable
8 | CC[C@H](C)[C@@H]1NC(=O)[C@H](CCCCN)NC(=O)[C@H](CC(C)C)NC(=O)[C@H](CO)NC(=O)[C@H](CC(N)=O)NC(=O)[C@H](Cc2c[nH]c3ccccc23)NC(=O)CCN(C(=O)c2ccccc2-c2c3ccc(=O)cc-3oc3cc(O)ccc23)C(=O)NCCCCN(CC(N)=O)C(=O)[C@H](C(C)C)NC(=O)[C@H](CC(=O)O)NC(=O)[C@H](CC(C)C)NC(=O)[C@H](CC(N)=O)NC(=O)[C@H](CC(=O)O)NC1=O (WNSLKIDNLDV[Nlys]-NH2; linker N-12 via X2) | 3.1 µM | 65% |  | 
9 | H-WNSLKIDNLDV-OH | 5.1 µM | 83% | Dose-dependent effect | inhibition [8]: 85%; Activity [9]: inactive; Activity [4]: Active; Stability [6]: Unstable
